Source: PubChem BioAssay AID2060487 (Molecular Pharmacology Branch, DTP, NCI, 2025)

System: 997537-175-T-J1-PDC complex spheroid viability
Assay: Anticancer human tumor 997537-175-T-J1-PDC patient-derived colon adenocarcinoma cell line growth inhibition [GQUAD]
Conditions: for IC50: curve of first compound; for viability, T/C: stronger effect = lower value
Text: DNA G-quadruplex Stabilizer Agents in Combinations in Complex Spheroids
A high-throughput screen of multi-cell type tumor spheroids was designed to identify active combinations of DNA G-quadruplex stabilizer agents and targeted small molecules. Complex spheroids include a stromal component modeled by human endothelial cells (HUVEC) and fibroblasts modeled by human mesenchymal stem cells (MSCs). The concentration ranges selected for each drug and investigational agent were based upon clinically achievable concentrations if the clinical Cmax of the agent was known.
Compounds. The drugs and investigational agents: pidnarulex (CX-5461; NSC782164), APTO-253 (NSC789042), BRACO-19 (NSC847499), peposertib (NSC802822), ceralasertib (NSC780249), elimusertib (NSC800525), camonsertib (NSC841442), AZD-1390 (NSC803789), olaparib (NSC753686), talazoparib (NSC767125), ART-558 (NSC835418), sotorasib (NSC818433), MRTX-1133 (NSC836407), SN-38 (NSC673596), topotecan (NSC609699), etoposide (NSC141540), doxorubicin (NSC123127), gemcitabine (NSC613327), 5-fluorouracil (NSC19893), paclitaxel (NSC125973), vemurafenib (NSC761431), panobinostat (NSC761190), R-306465 (JNJ-16241199; NSC773264), adavosertib (NSC754352), TP-3654 (NSC805149), carboplatin (NSC241240), KSQ-4279 (NSC840948), and staurosporine (NSC755774) were obtained from the National Cancer Institute (NCI) Developmental Therapeutics Program Chemical Repository (34). The FDA-approved anticancer drug set is available from the NCI Developmental Therapeutics Program. […] The stock solutions were prepared in dimethyl sulfoxide (DMSO, Sigma-Aldrich, St. Louis, MO, cat. D2650) at 800-fold the tested concentration and stored at -70 degrees C prior to their use. All drugs and investigational agents were tested over a range starting from a high concentration at or near the clinical Cmax and decreasing in half-log increments. If the clinical Cmax for an agent had not been determined, the highest concentration tested was 10 microM.
2.3 Cell Culture. All cells were maintained in an incubator at 37 degrees C and 5% CO2 with 95% humidity. The PDC lines were cultured according to standard operating procedures established by the NCI PDMR. All PDCs were thawed and cultured in Matrigel-coated flasks prepared with a working solution of 1X Ham's F-12 nutrient mix, without supplementation (Invitrogen, cat. 11765054), 100 U/mL penicillin-streptomycin (Invitrogen, cat. 15140122), and 2.5% Matrigel (Corning Inc., cat. 354248) for the first three passages. The 857933-349-R-J2-PDC line was cultured in 6C/Colon 1B media, which includes advanced DMEM/F-12 (Thermo Fisher Scientific, cat. 12634028), 10 mM HEPES (Thermo Fisher Scientific, cat. 15630080), 1X GlutaMAX supplement (Thermo Fisher Scientific, cat. 35050061), 0.1 mg/mL primocin (InvivoGen, cat. ant-pm-2), 10% defined fetal bovine serum, heat inactivated (HyClone Laboratories Inc., cat. SH30070.03HI), 50% L-WRN conditioned media (ATCC, cat. CRL-3276), 1.25 mM N-Acetyl-L-cysteine (Sigma-Aldrich, cat. A9165), 10 mM nicotinamide (Sigma-Aldrich, cat. N0636), 1X B-27 supplement (Thermo Fisher Scientific, cat. 17504044), 1X N-2 supplement (Thermo Fisher Scientific, cat. 17502048), 10 microM Y-27632 dihydrochloride (Tocris Bioscience, cat. 1254), and 50 ng/mL human EGF recombinant protein (Thermo Fisher Scientific, cat. PHG0311). The 485176-168-R4-J1-PDC line was cultured in Panc media, which includes all 6C/Colon 1B media components plus 100 ng/mL human FGF-10 (Thermo Fisher Scientific, cat. 100-26), 500 nM SB-431542 (Selleckchem, cat. S1067), and gastrin (Tocris, cat. 3006).
[…]

[1] = second compound 0.0316 µM, first compound 0.0316 µM
[2] = second compound 0.0316 µM, first compound 0.1 µM
[3] = second compound 0.0316 µM, first compound 0.316 µM
[4] = second compound 0.0316 µM, first compound 1 µM
[5] = second compound 0.0316 µM, first compound 3.16 µM
[6] = second compound 0.0316 µM, first compound 10 µM
[7] = second compound 0.1 µM, first compound 0.0316 µM
[8] = second compound 0.1 µM, first compound 0.1 µM
[9] = second compound 0.1 µM, first compound 0.316 µM
[10] = second compound 0.1 µM, first compound 1 µM
[11] = second compound 0.1 µM, first compound 3.16 µM
[12] = second compound 0.1 µM, first compound 10 µM
[13] = second compound 0.316 µM, first compound 0.0316 µM
[14] = second compound 0.316 µM, first compound 0.1 µM
[15] = second compound 0.316 µM, first compound 0.316 µM
[16] = second compound 0.316 µM, first compound 1 µM
[17] = second compound 0.316 µM, first compound 3.16 µM
[18] = second compound 0.316 µM, first compound 10 µM
[19] = second compound 1 µM, first compound 0.0316 µM
[20] = second compound 1 µM, first compound 0.1 µM
[21] = second compound 1 µM, first compound 0.316 µM
[22] = second compound 1 µM, first compound 1 µM
[23] = second compound 1 µM, first compound 3.16 µM
[24] = second compound 1 µM, first compound 10 µM
[25] = second compound 3.16 µM, first compound 0.0316 µM
[26] = second compound 3.16 µM, first compound 0.1 µM
[27] = second compound 3.16 µM, first compound 0.316 µM
[28] = second compound 3.16 µM, first compound 1 µM
[29] = second compound 3.16 µM, first compound 3.16 µM
[30] = second compound 3.16 µM, first compound 10 µM
[31] = second compound 10 µM, first compound 0.0316 µM
[32] = second compound 10 µM, first compound 0.1 µM
[33] = second compound 10 µM, first compound 0.316 µM
[34] = second compound 10 µM, first compound 1 µM
[35] = second compound 10 µM, first compound 3.16 µM
[36] = second compound 10 µM, first compound 10 µM
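Also: spheroids exposed to the agents for 7 days.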
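For viability, T/C in this document: 100% = DMSO vehicle control viability.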

## COc1cccc2c1C(=O)c1c(O)c3c(c(O)c1C2=O)CC(O)(C(=O)CO)CC3OC1CC(N)C(O)C(C)O1 (stereo unspecified) + CN(C)c1ccc(Nc2c3ccc(NC(=O)CCN4CCCC4)cc3nc3cc(NC(=O)CCN4CCCC4)ccc23)cc1
Second compound 0.0316 µM
  IC50: 6.55 µM
Second compound 0.1 µM
  IC50: 8.54 µM
Second compound 0.316 µM
  IC50: > 10 µM
Second compound 1 µM
  IC50: > 10 µM
Second compound 3.16 µM
  IC50: > 10 µM
Second compound 10 µM
  IC50: > 10 µM
[1]
  viability, T/C: 98%
[2]
  viability, T/C: 88.9%
[3]
  viability, T/C: 99.1%
[4]
  viability, T/C: 96.3%
[5]
  viability, T/C: 71.7%
[6]
  viability, T/C: 37.4%
[7]
  viability, T/C: 111%
[8]
  viability, T/C: 88.3%
[9]
  viability, T/C: 77.6%
[10]
  viability, T/C: 94.8%
[11]
  viability, T/C: 96.2%
[12]
  viability, T/C: 42.9%
[13]
  viability, T/C: 89.5%
[14]
  viability, T/C: 88.5%
[15]
  viability, T/C: 101%
[16]
  viability, T/C: 102%
[17]
  viability, T/C: 94.6%
[18]
  viability, T/C: 56.5%
[19]
  viability, T/C: 63.7%
[20]
  viability, T/C: 86.7%
[21]
  viability, T/C: 101%
[22]
  viability, T/C: 83.8%
[23]
  viability, T/C: 97%
[24]
  viability, T/C: 51.5%
[25]
  viability, T/C: 74.8%
[26]
  viability, T/C: 77.1%
[27]
  viability, T/C: 107%
[28]
  viability, T/C: 90%
[29]
  viability, T/C: 99%
[30]
  viability, T/C: 67.3%
[31]
  viability, T/C: 94.1%
[32]
  viability, T/C: 84.2%
[33]
  viability, T/C: 102%
[34]
  viability, T/C: 83.3%
[35]
  viability, T/C: 81%
[36]
  viability, T/C: 58.2%

## O=C(NO)c1cnc(N2CCN(S(=O)(=O)c3ccc4ccccc4c3)CC2)nc1 + Cc1cnc(CNC(=O)c2c(=O)c3ccc(N4CCCN(C)CC4)nc3n3c2sc2ccccc23)cn1
Second compound 0.0316 µM
  IC50: 1.93 µM
Second compound 0.1 µM
  IC50: 2.11 µM
Second compound 0.316 µM
  IC50: 4.01 µM
Second compound 1 µM
  IC50: 1.96 µM
Second compound 3.16 µM
  IC50: 1.84 µM
Second compound 10 µM
  IC50: 1.62 µM
[1]
  viability, T/C: 107%
[2]
  viability, T/C: 92.3%
[3]
  viability, T/C: 96.3%
[4]
  viability, T/C: 81.2%
[5]
  viability, T/C: 26.8%
[6]
  viability, T/C: 0.4%
[7]
  viability, T/C: 105%
[8]
  viability, T/C: 97%
[9]
  viability, T/C: 80.7%
[10]
  viability, T/C: 69%
[11]
  viability, T/C: 41.7%
[12]
  viability, T/C: 0.47%
[13]
  viability, T/C: 94.7%
[14]
  viability, T/C: 100%
[15]
  viability, T/C: 85.6%
[16]
  viability, T/C: 73.2%
[17]
  viability, T/C: 69.8%
[18]
  viability, T/C: 0.31%
[19]
  viability, T/C: 83.9%
[20]
  viability, T/C: 90%
[21]
  viability, T/C: 104%
[22]
  viability, T/C: 93%
[23]
  viability, T/C: 19.4%
[24]
  viability, T/C: 0.31%
[25]
  viability, T/C: 104%
[26]
  viability, T/C: 116%
[27]
  viability, T/C: 93.5%
[28]
  viability, T/C: 83.2%
[29]
  viability, T/C: 21.4%
[30]
  viability, T/C: 1.15%
[31]
  viability, T/C: 108%
[32]
  viability, T/C: 88.7%
[33]
  viability, T/C: 103%
[34]
  viability, T/C: 77.5%
[35]
  viability, T/C: 11.4%
[36]
  viability, T/C: 0.29%

## C#Cc1c(F)ccc2cc(O)cc(-c3ncc4c(N5CC6CCC(C5)N6)nc(OCC56CCCN5CC(F)C6)nc4c3F)c12 (stereo unspecified) + Cc1[nH]c2ccc(F)cc2c1-c1nc2c3cccnc3c3ncccc3c2[nH]1
Second compound 0.0316 µM
  IC50: 1.87 µM
Second compound 0.1 µM
  IC50: 1.9 µM
Second compound 0.316 µM
  IC50: 1.84 µM
Second compound 1 µM
  IC50: 1.29 µM
Second compound 3.16 µM
  IC50: 0.563 µM
Second compound 10 µM
  IC50: 0.46 µM
[1]
  viability, T/C: 87.5%
[2]
  viability, T/C: 90.5%
[3]
  viability, T/C: 97%
[4]
  viability, T/C: 71.1%
[5]
  viability, T/C: 29.3%
[6]
  viability, T/C: 35.4%
[7]
  viability, T/C: 98.8%
[8]
  viability, T/C: 103%
[9]
  viability, T/C: 99.6%
[10]
  viability, T/C: 74.2%
[11]
  viability, T/C: 30.9%
[12]
  viability, T/C: 26.6%
[13]
  viability, T/C: 91.6%
[14]
  viability, T/C: 87.7%
[15]
  viability, T/C: 85.4%
[16]
  viability, T/C: 63.3%
[17]
  viability, T/C: 35.4%
[18]
  viability, T/C: 41%
[19]
  viability, T/C: 95.9%
[20]
  viability, T/C: 88.3%
[21]
  viability, T/C: 79.6%
[22]
  viability, T/C: 56.9%
[23]
  viability, T/C: 29.5%
[24]
  viability, T/C: 38.2%
[25]
  viability, T/C: 89.4%
[26]
  viability, T/C: 73.7%
[27]
  viability, T/C: 62%
[28]
  viability, T/C: 41%
[29]
  viability, T/C: 21.5%
[30]
  viability, T/C: 15.2%
[31]
  viability, T/C: 70.7%
[32]
  viability, T/C: 74.1%
[33]
  viability, T/C: 60.6%
[34]
  viability, T/C: 26.9%
[35]
  viability, T/C: 10.2%
[36]
  viability, T/C: 11.8%
